Source: patent US20050107423A1, “Quinolone antibacterial agents” (priority 2003, published 2005)
≈ marks a conversion by molar mass, not a printed value.

Legend:
Experiment in all cases: Antibacterial assay, microtitration MIC (Test A)
Type in all cases: cell-based
S. pneumo SV-1 = conditions: Gram Positive Bacteria, strain SV-1; for MIC: read-out: Minimum Inhibitory Concentrations S. pneumo SV-1
Method: (§1) The compounds of the present invention were tested against an assortment of Gram-negative and Gram-positive organisms using standard microtitration techniques (Cohen et. al., Antimicrob., 1985;28:766; Heifetz, et. al., Antimicrob., 1974;6:124). The results of the evaluation are shown in Tables 1A and B, wherein “-” means no data.

E. faecalis MGH-2 = conditions: strain MGH-2; for MIC: Enterococcus faecalis, MGH2, Gram Positive Bacteria, read-out: Minimum Inhibitory Concentrations E. faecalis MGH-2; for Minimum Inhibitory Concentrations E. faecalis MGH-2: Gram Positive Bacteria
Method: as §1

S. aureus UC-76 = conditions: strain UC-76; for MIC: Staphylococcus aureus, UC76, Gram Positive Bacteria, read-out: Minimum Inhibitory Concentrations S. aureus UC-76; for Minimum Inhibitory Concentrations S. aureus UC-76: Gram Positive Bacteria
Method: as §1

S pyogenes C203 = conditions: Gram Positive Bacteria, strain C203; for MIC: read-out: Minimum Inhibitory Concentrations S pyogenes C203
Method: as §1

E. coli EC-2549 = conditions: Escherichia coli, EC2549, Gram Negative Bacteria; strain EC-2549; read-out: Minimum Inhibitory Concentrations E. coli EC-2549
Method: as §1

M. catarrhalis BC-3531 = conditions: Moraxella catarrhalis, BC3531, Gram Negative Bacteria; strain BC-3531; read-out: Minimum Inhibitory Concentrations M. catarrhalis BC-3531
Method: as §1

H. influenzae HI-3542 = conditions: Haemophilus influenzae, HI3542, Gram Negative Bacteria; strain HI-3542; read-out: Minimum Inhibitory Concentrations H. influenzae HI-3542
Method: as §1

SMILES	MIC (S. pneumo SV-1)	MIC (E. faecalis MGH-2)	MIC (S. aureus UC-76)	MIC (S pyogenes C203)	MIC (E. coli EC-2549)	MIC (M. catarrhalis BC-3531)	MIC (H. influenzae HI-3542)	Minimum Inhibitory Concentrations E. faecalis MGH-2 (E. faecalis MGH-2)	Minimum Inhibitory Concentrations S. aureus UC-76 (S. aureus UC-76)	Minimum Inhibitory Concentrations S pyogenes C203 (S pyogenes C203)	Minimum Inhibitory Concentrations S. pneumo SV-1 (S. pneumo SV-1)
COCCOCC(O)C1CN(c2c(F)cc3c(=O)c(C(=O)O)cn(C4CC4)c3c2C)CC1(C)C (centres unmarked) [drawing 433]	1 µg/mL (≈ 2.1 µM)	0.5 µg/mL (≈ 1.05 µM)	0.03 µg/mL (≈ 0.063 µM)	1 µg/mL (≈ 2.1 µM)							
Cc1c(N2CCC(C(O)C(F)(F)F)C2)c(F)cc2c(=O)c(C(=O)O)cn(C3CC3)c12 (centres unmarked) [drawing 363]	0.25 µg/mL (≈ 0.584 µM)		0.0015 µg/mL (≈ 0.0035 µM)	0.5 µg/mL (≈ 1.17 µM)				0.25 µg/mL			
COc1c(N2CCC(CO)(CO)C2)c(F)cc2c(=O)c(C(=O)O)cn(C3CC3)c12 [drawing 377]	0.25 µg/mL (≈ 0.615 µM)	0.5 µg/mL (≈ 1.23 µM)	0.06 µg/mL (≈ 0.148 µM)	0.25 µg/mL (≈ 0.615 µM)							
Cc1c(N2CC(C)(CO)C(C)(CO)C2)c(F)cc2c(=O)c(C(=O)O)cn(C3CC3)c12 (centres unmarked) [drawing 440]	0.5 µg/mL (≈ 1.19 µM)							1 µg/mL	0.015 µg/mL	1 µg/mL	
Nc1nc(-n2cc(C(=O)O)c(=O)c3cc(F)c(N4C[C@@H](CO)[C@@H](CO)C4)c(Cl)c32)c(F)cc1F [drawing 402]	0.5 µg/mL (≈ 1 µM)	2 µg/mL (≈ 4.01 µM)	0.125 µg/mL (≈ 0.251 µM)	0.5 µg/mL (≈ 1 µM)							
COCC(O)C1CCN(c2c(F)cc3c(=O)c(C(=O)O)cn(C4CC4)c3c2C)C1 (centres unmarked) [drawing 370]	0.5 µg/mL (≈ 1.24 µM)	1 µg/mL (≈ 2.47 µM)	0.06 µg/mL (≈ 0.148 µM)	1 µg/mL (≈ 2.47 µM)							
O=C(O)c1cn(-c2ccc(F)cc2F)c2nc(N3C[C@@H](CO)[C@@H](CO)C3)c(F)cc2c1=O [drawing 398]	0.5 µg/mL (≈ 1.11 µM)	0.5 µg/mL (≈ 1.11 µM)	0.06 µg/mL (≈ 0.134 µM)	0.5 µg/mL (≈ 1.11 µM)							
Nc1nc(-n2cc(C(=O)O)c(=O)c3cc(F)c(N4C[C@@H](O)[C@@H](O)C4)nc32)c(F)cc1F [drawing 399]	0.5 µg/mL (≈ 1.14 µM)	0.5 µg/mL (≈ 1.14 µM)	0.125 µg/mL (≈ 0.286 µM)	0.25 µg/mL (≈ 0.572 µM)							
Cc1c(N2CC(C)(CO)C(C)(CO)C2)c(F)cc2c(=O)c(C(=O)O)cn(C3CC3)c12 (centres unmarked) [drawing 439]								0.25 µg/mL	0.15 µg/mL	0.25 µg/mL	0.25 µg/mL
COc1c(N2CCC(C(O)C3(O)CC3)C2)c(F)cc2c(=O)c(C(=O)O)cn(C3CC3)c12 (centres unmarked) [drawing 361]	0.25 µg/mL (≈ 0.578 µM)	0.5 µg/mL (≈ 1.16 µM)	0.015 µg/mL (≈ 0.0347 µM)	0.25 µg/mL (≈ 0.578 µM)							
COCC(O)C1CN(c2c(F)cc3c(=O)c(C(=O)O)cn(C4CC4)c3c2C)CC1(C)C (centres unmarked) [drawing 435]	0.25 µg/mL (≈ 0.578 µM)	0.25 µg/mL (≈ 0.578 µM)	0.015 µg/mL (≈ 0.0347 µM)	0.5 µg/mL (≈ 1.16 µM)							
COC[C@@H]1CN(c2c(F)cc3c(=O)c(C(=O)O)cn(C4CC4)c3c2C)C[C@@H]1COC [drawing 407]	0.25 µg/mL (≈ 0.597 µM)	0.5 µg/mL (≈ 1.19 µM)	0.03 µg/mL (≈ 0.0717 µM)	0.25 µg/mL (≈ 0.597 µM)							
COc1c(N2CC3CC(O)C(O)C3C2)c(F)cc2c(=O)c(C(=O)O)cn(C3CC3)c12 (centres unmarked)	0.25 µg/mL (≈ 0.597 µM)	0.25 µg/mL (≈ 0.597 µM)	0.008 µg/mL (≈ 0.0191 µM)	0.25 µg/mL (≈ 0.597 µM)							
COc1c(N2CCC(C(O)c3ccc(S(C)(=O)=O)o3)C2)c(F)cc2c(=O)c(C(=O)O)cn(C3CC3)c12 (centres unmarked) [drawing 319]					2 µg/mL (≈ 3.84 µM)	0.125 µg/mL (≈ 0.24 µM)	0.06 µg/mL (≈ 0.115 µM)				
Cc1c(N2CC(C(O)CO)C(C)(C)C2)c(F)cc2c(=O)c(C(=O)O)cn(C3CC3)c12 (centres unmarked) [drawing 425]					0.5 µg/mL (≈ 1.19 µM)	0.06 µg/mL (≈ 0.143 µM)	0.06 µg/mL (≈ 0.143 µM)				
O=C(O)c1cn(C2CC2)c2c(Cl)c(N3C[C@@H](CO)[C@@H](CO)C3)c(F)cc2c1=O [drawing 382]					0.06 µg/mL (≈ 0.146 µM)	0.03 µg/mL (≈ 0.073 µM)	0.004 µg/mL (≈ 0.00974 µM)				
Nc1nc(-n2cc(C(=O)O)c(=O)c3cc(F)c(N4C[C@@H](O)[C@@H](O)C4)nc32)c(F)cc1F [drawing 380]					0.25 µg/mL (≈ 0.572 µM)	0.125 µg/mL (≈ 0.286 µM)	0.008 µg/mL (≈ 0.0183 µM)				
COCC(O)C1CN(c2c(F)cc3c(=O)c(C(=O)O)cn(C4CC4)c3c2C)CC1(C)C (centres unmarked) [drawing 426]					1 µg/mL (≈ 2.31 µM)	0.125 µg/mL (≈ 0.289 µM)	0.25 µg/mL (≈ 0.578 µM)				

More lines, in order of falling MIC (S. pneumo SV-1), values ahead:

MIC (S. pneumo SV-1)	MIC (E. faecalis MGH-2)	MIC (S. aureus UC-76)	MIC (S pyogenes C203)	MIC (E. coli EC-2549)	MIC (M. catarrhalis BC-3531)	MIC (H. influenzae HI-3542)	SMILES	Minimum Inhibitory Concentrations E. faecalis MGH-2 (E. faecalis MGH-2)	Minimum Inhibitory Concentrations S. aureus UC-76 (S. aureus UC-76)	Minimum Inhibitory Concentrations S pyogenes C203 (S pyogenes C203)	Minimum Inhibitory Concentrations S. pneumo SV-1 (S. pneumo SV-1)
0.125 µg/mL (≈ 0.304 µM)	0.125 µg/mL (≈ 0.304 µM)	0.004 µg/mL (≈ 0.00974 µM)	0.125 µg/mL (≈ 0.304 µM)				O=C(O)c1cn(C2CC2)c2c(Cl)c(N3C[C@@H](CO)[C@@H](CO)C3)c(F)cc2c1=O [drawing 401]				
0.125 µg/mL (≈ 0.3 µM)	0.125 µg/mL (≈ 0.3 µM)	0.008 µg/mL (≈ 0.0192 µM)	0.125 µg/mL (≈ 0.3 µM)				Cc1c(N2CC(C(O)CO)C3(CC3)C2)c(F)cc2c(=O)c(C(=O)O)cn(C3CC3)c12 (centres unmarked) [drawing 431]				
0.125 µg/mL (≈ 0.295 µM)	0.25 µg/mL (≈ 0.589 µM)	0.004 µg/mL (≈ 0.00942 µM)	0.25 µg/mL (≈ 0.589 µM)				Cc1c(N2CCC(C(O)C(C)(F)F)C2)c(F)cc2c(=O)c(C(=O)O)cn(C3CC3)c12 (centres unmarked) [drawing 369]				
0.125 µg/mL (≈ 0.308 µM)	0.125 µg/mL (≈ 0.308 µM)	0.008 µg/mL (≈ 0.0197 µM)	0.125 µg/mL (≈ 0.308 µM)				COc1c(N2C[C@H](CO)[C@@H](CO)C2)c(F)cc2c(=O)c(C(=O)O)cn(C3CC3)c12 [drawing 404]				
0.125 µg/mL (≈ 0.311 µM)	0.125 µg/mL (≈ 0.311 µM)	0.015 µg/mL (≈ 0.0373 µM)	0.25 µg/mL (≈ 0.621 µM)				COc1c(N2CCC(C3(O)CC3)C2)c(F)cc2c(=O)c(C(=O)O)cn(C3CC3)c12 (centres unmarked) [drawing 360]				
0.125 µg/mL (≈ 0.311 µM)	0.125 µg/mL (≈ 0.311 µM)	0.008 µg/mL (≈ 0.0199 µM)	0.125 µg/mL (≈ 0.311 µM)				Cc1c(N2C[C@@H]3C[C@@H](O)[C@@H](O)[C@@H]3C2)c(F)cc2c(=O)c(C(=O)O)cn(C3CC3)c12 [drawing 457]				
0.125 µg/mL (≈ 0.299 µM)	0.125 µg/mL (≈ 0.299 µM)	0.008 µg/mL (≈ 0.0191 µM)	0.125 µg/mL (≈ 0.299 µM)				Cc1c(N2CC(C(O)CO)C(C)(C)C2)c(F)cc2c(=O)c(C(=O)O)cn(C3CC3)c12 (centres unmarked) [drawing 434]				
0.06 µg/mL (≈ 0.139 µM)	0.125 µg/mL (≈ 0.289 µM)	0.004 µg/mL (≈ 0.00925 µM)	0.125 µg/mL (≈ 0.289 µM)				CCCOC[C@@H]1CN(c2c(F)cc3c(=O)c(C(=O)O)cn(C4CC4)c3c2C)C[C@@H]1CO [drawing 410]				
0.06 µg/mL (≈ 0.143 µM)	0.125 µg/mL (≈ 0.299 µM)	0.004 µg/mL (≈ 0.00956 µM)	0.125 µg/mL (≈ 0.299 µM)				CCOC[C@@H]1CN(c2c(F)cc3c(=O)c(C(=O)O)cn(C4CC4)c3c2C)C[C@@H]1CO [drawing 409]				
0.06 µg/mL (≈ 0.139 µM)	0.125 µg/mL (≈ 0.29 µM)	0.004 µg/mL (≈ 0.00929 µM)	0.125 µg/mL (≈ 0.29 µM)				Cc1c(N2CC3(CO)CCCC3(CO)C2)c(F)cc2c(=O)c(C(=O)O)cn(C3CC3)c12 (centres unmarked) [drawing 463]				
0.06 µg/mL (≈ 0.141 µM)	0.125 µg/mL (≈ 0.293 µM)	0.008 µg/mL (≈ 0.0188 µM)	0.25 µg/mL (≈ 0.586 µM)				COc1c(N2CCC(C(O)C(F)F)C2)c(F)cc2c(=O)c(C(=O)O)cn(C3CC3)c12 (centres unmarked) [drawing 349]				
0.06 µg/mL (≈ 0.159 µM)	0.06 µg/mL (≈ 0.159 µM)	0.00403 µg/mL (≈ 0.0107 µM)	0.06 µg/mL (≈ 0.159 µM)				COc1c(N2CCC(CO)C2)c(F)cc2c(=O)c(C(=O)O)cn(C3CC3)c12 (centres unmarked) [drawing 342]				
0.03 µg/mL (≈ 0.0714 µM)	0.03 µg/mL (≈ 0.0714 µM)	0.004 µg/mL (≈ 0.00951 µM)	0.06 µg/mL (≈ 0.143 µM)				COc1c(N2CCC(C(CO)CO)C2)c(F)cc2c(=O)c(C(=O)O)cn(C3CC3)c12 (centres unmarked) [drawing 340]				
0.03 µg/mL (≈ 0.0801 µM)	2 µg/mL (≈ 5.34 µM)	0.125 µg/mL (≈ 0.334 µM)	0.06 µg/mL (≈ 0.16 µM)				Cc1c(N2CCC(CCO)C2)c(F)cc2c(=O)c(C(=O)O)cn(C3CC3)c12 (centres unmarked) [drawing 341]				
0.03 µg/mL (≈ 0.0742 µM)	0.06 µg/mL (≈ 0.148 µM)	0.004 µg/mL (≈ 0.00989 µM)	0.06 µg/mL (≈ 0.148 µM)				COC[C@@H]1CN(c2c(F)cc3c(=O)c(C(=O)O)cn(C4CC4)c3c2C)C[C@@H]1CO [drawing 408]				
0.03 µg/mL (≈ 0.0717 µM)	0.06 µg/mL (≈ 0.143 µM)	0.002 µg/mL (≈ 0.00478 µM)	0.03 µg/mL (≈ 0.0717 µM)				Cc1c(N2C[C@@H](CCO)[C@@H](CCO)C2)c(F)cc2c(=O)c(C(=O)O)cn(C3CC3)c12 [drawing 414]				
